Structures can show the parent of a compound that is named as a salt. Where two headings read alike, the source gives them in different places.
How the values were obtained:
Assay in all cases: In vitro antibacterial activity (MIC)
Format in all cases: cell-based
S. marcescens S3 = conditions: Serratia marcescens; S. marcescens S3; read-out: MIC
Procedure: (§1) Drug dilutions are prepared in Mueller-Hinton broth ranging from 128 to 0.008 μg/ml. The diluted agents are dispensed in 100 μl amounts into the wells of a 96-well tray and used immediately or frozen at -10° to -70° C. until needed. Using an automated inoculator, 1.5 μl of a 10^-2 dilution of an overnight culture is added to each well of the tray. The tops of the trays are then sealed using transparent tape and incubated overnight at 37° C. The trays are examined with the aid of a viewer. The lowest concentration at which no growth is observed is considered to be the minimum inhibitory concentration (MIC).

K. pneumoniae HE7 = conditions: Klebsiella pneumoniae; K. pneumoniae HE7; read-out: MIC
Procedure: as §1

E. cloacae P99 = conditions: Enterobacter cloacae, P99, E. cloacae P99
Procedure: as §1

S. marcescens S147 = conditions: Serratia marcescens; S. marcescens S147; read-out: MIC
Procedure: as §1

S. marcescens S2 = conditions: Serratia marcescens; S. marcescens S2; read-out: MIC
Procedure: as §1

E. cloacae 5699 = conditions: Enterobacter cloacae, 5699, E. cloacae 5699; read-out: MIC
Procedure: as §1

S. marcescens S5 = conditions: Serratia marcescens, S5, S. marcescens S5; read-out: MIC
Procedure: as §1

K. pneumoniae 5096 = conditions: Klebsiella pneumoniae; K. pneumoniae 5096; read-out: MIC
Procedure: as §1

K. pneumoniae 8357 = conditions: Klebsiella pneumoniae, 8357, K. pneumoniae 8357; read-out: MIC
Procedure: as §1

E. cloacae 6951 = system: E. cloacae 6951
Procedure: as §1

E. cloacae 214 = conditions: Enterobacter cloacae, 214, E. cloacae 214; read-out: MIC
Procedure: as §1

S. marcescens 5805 = system: S. marcescens 5805
Procedure: as §1

S. marcescens SM = conditions: Serratia marcescens, read-out: MIC
Procedure: as §1

E. coli 5152 = system: E. coli 5152
Procedure: as §1

E. aerogenes 503-478 = conditions: Klebsiella aerogenes, 503478, E. aerogenes 503-478; read-out: MIC
Procedure: as §1

S. typhi P58A = conditions: Salmonella enterica, TYPHI
Procedure: as §1

P. mirabilis 620A = conditions: Proteus mirabilis, 620A
Procedure: as §1

P. vulgaris 100 = conditions: Proteus vulgaris
Procedure: as §1

C. diversus CDC 1663-72 = conditions: Citrobacter koseri, CDC166372; C. diversus CDC 1663-72; read-out: MIC
Procedure: as §1

C. freundii CDC6 = conditions: Citrobacter freundii, CDC6, C. freundii CDC6; read-out: MIC
Procedure: as §1

K. pneumoniae 35 = system: K. pneumoniae 35
Procedure: as §1

E. cloacae 9570A = conditions: Enterobacter cloacae, read-out: MIC
Procedure: as §1

C. freundii 8ASM = conditions: Citrobacter freundii, 8ASM, C. freundii 8ASM; read-out: MIC
Procedure: as §1

K. pneumoniae 503-964 = conditions: Klebsiella pneumoniae, 503964; K. pneumoniae 503-964; read-out: MIC
Procedure: as §1

P. mirabilis 2 = conditions: Proteus mirabilis, 2, P. mirabilis 2; read-out: MIC
Procedure: as §1

P. rettgeri ATCC 9250 = conditions: Providencia rettgeri, ATCC9250, P. rettgeri ATCC 9250; read-out: MIC
Procedure: as §1

P. aeruginosa 5700 = conditions: Pseudomonas aeruginosa, 5700, P. aeruginosa 5700; read-out: MIC
Procedure: as §1

S. aureus Giorgio = conditions: Staphylococcus aureus, S. aureus Giorgio; read-out: MIC
Procedure: as §1

E. cloacae 9295 = conditions: Enterobacter cloacae, 9295, E. cloacae 9295; read-out: MIC
Procedure: as §1

E. coli 48 = conditions: Escherichia coli, 48, E. coli 48; read-out: MIC
Procedure: as §1

P. vulgaris ATCC 6380 = conditions: Proteus vulgaris
Procedure: as §1

S. pneumoniae 6301 = system: S. pneumoniae 6301
Procedure: as §1

E. coli R-563 = conditions: Escherichia coli, R563, E. coli R-563; read-out: MIC
Procedure: as §1

S. aureus Smith = conditions: Staphylococcus aureus, S. aureus Smith; read-out: MIC
Procedure: as §1

K. pneumoniae 503-994 = conditions: Klebsiella pneumoniae, 503994, K. pneumoniae 503-994; read-out: MIC
Procedure: as §1

P. aeruginosa Stone 130 = conditions: Pseudomonas aeruginosa, STONE130, read-out: MIC
Procedure: as §1

P. aeruginosa POW 151 = conditions: Pseudomonas aeruginosa, POW151
Procedure: as §1

P. aeruginosa B = conditions: Pseudomonas aeruginosa, read-out: MIC
Procedure: as §1

P. aeruginosa 503-56 = conditions: Pseudomonas aeruginosa, 50356, P. aeruginosa 503-56
Procedure: as §1

S. pneumoniae SC = conditions: Streptococcus pneumoniae, read-out: MIC
Procedure: as §1

P. aeruginosa 6148B = conditions: Pseudomonas aeruginosa, read-out: MIC
Procedure: as §1

S. faecalis C1 = conditions: Enterococcus faecalis; S. faecalis C1; read-out: MIC
Procedure: as §1

P. aeruginosa 5712 = conditions: Pseudomonas aeruginosa; P. aeruginosa 5712; read-out: MIC
Procedure: as §1

S. pyogenes 503-782 = conditions: Streptococcus pyogenes, 503782; S. pyogenes 503-782; read-out: MIC
Procedure: as §1

S. pneumoniae 6302 = conditions: Streptococcus pneumoniae, 6302, S. pneumoniae 6302; read-out: MIC
Procedure: as §1

[1] = Enterobacter cloacae, 6951, E. cloacae 6951, read-out: MIC
[2] = Serratia marcescens, 5805, S. marcescens 5805, read-out: MIC
[3] = P. mirabilis 620A, read-out: MIC
[4] = Streptococcus pneumoniae, 6301, S. pneumoniae 6301, read-out: MIC
[5] = Klebsiella pneumoniae, K. pneumoniae 35, read-out: MIC
[6] = ATCC6380, P. vulgaris ATCC 6380, read-out: MIC

CC1(C)S[C@@H]2[C@H](N=CN3CCCC(c4ncc[nH]4)C3)C(=O)N2[C@H]1C(=O)O (stereo partly drawn) [P, [2S-(2alpha,5alpha,6beta)]-6-[[[3-(1H-imidazol-2-yl)-1-piperidinyl]methylene]amino]-3,3-dimethyl-7-oxo-4-thia-1-azabicyclo[3.2.0]heptane-2-carboxylicacid hydrochloride]
MIC (S. marcescens S3): 8 µg/mL | MIC (K. pneumoniae HE7): 128 µg/mL | MIC (E. cloacae P99): 8 µg/mL | MIC (S. marcescens S147): 8 µg/mL | MIC (S. marcescens S2): 8 µg/mL | MIC (E. cloacae 5699): 8 µg/mL | MIC (S. marcescens S5): > 128 µg/mL | MIC (K. pneumoniae 5096): 64 µg/mL | MIC (K. pneumoniae 8357): 8 µg/mL | MIC (E. cloacae 6951; [1]): > 128 µg/mL | MIC (E. cloacae 214): 8 µg/mL | MIC (S. marcescens 5805; [2]): 128 µg/mL | MIC (S. marcescens SM): 8 µg/mL | MIC (E. coli 5152; Escherichia coli, 5152, E. coli 5152, read-out: MIC): > 128 µg/mL | MIC (E. aerogenes 503-478): > 128 µg/mL | MIC (S. typhi P58A): 2 µg/mL | MIC (P. mirabilis 620A; [3]): > 128 µg/mL | MIC (P. vulgaris 100; P. vulgaris 100, read-out: MIC): 128 µg/mL | MIC (C. diversus CDC 1663-72): 2 µg/mL | MIC (C. freundii CDC6): 4 µg/mL | MIC (K. pneumoniae 35; Klebsiella pneumoniae, 35, K. pneumoniae 35): 16 µg/mL | MIC (E. cloacae 9570A): 8 µg/mL | MIC (C. freundii 8ASM): 2 µg/mL | MIC (K. pneumoniae 503-964): 8 µg/mL | MIC (P. mirabilis 2): 8 µg/mL | MIC (P. rettgeri ATCC 9250): 4 µg/mL | MIC (P. aeruginosa 5700): 8 µg/mL | MIC (S. aureus Giorgio): 4 µg/mL | MIC (E. cloacae 9295): 8 µg/mL | MIC (E. coli 48): 2 µg/mL | MIC (P. vulgaris ATCC 6380; ATCC6380): 0.5 µg/mL | MIC (S. pneumoniae 6301; [4]): 1 µg/mL | MIC (E. coli R-563): 2 µg/mL | MIC (S. aureus Smith): 2 µg/mL | MIC (K. pneumoniae 503-994): 8 µg/mL

CC1(C)S[C@@H]2[C@H](N=CN3CCC(CCC4=NCCN4)CC3)C(=O)N2[C@H]1C(=O)O [N, [2S-(2alpha,5alpha,6beta)]-6-[[[4-[4,5-dihydro-1H-imidazol-2-yl)ethyl]-1-piperidinyl]methylene]amino]-3,3-dimethyl-7-oxo-4-thia-1-azabicyclo[3.2.0]heptane-2-carboxylic acid hydrochloride]
MIC (S. marcescens S3): 0.062 µg/mL | MIC (K. pneumoniae HE7): > 128 µg/mL | MIC (E. cloacae P99): 0.016 µg/mL | MIC (S. marcescens S147): 0.062 µg/mL | MIC (S. marcescens S2): 0.062 µg/mL | MIC (P. aeruginosa Stone 130): > 128 µg/mL | MIC (E. cloacae 5699): 0.062 µg/mL | MIC (S. marcescens S5): 0.25 µg/mL | MIC (K. pneumoniae 5096): > 128 µg/mL | MIC (K. pneumoniae 8357): 0.125 µg/mL | MIC (P. aeruginosa POW 151): > 128 µg/mL | MIC (E. cloacae 6951; [1]): 8 µg/mL | MIC (E. cloacae 214): 0.062 µg/mL | MIC (S. marcescens 5805; Serratia marcescens, 5805): 0.25 µg/mL | MIC (S. marcescens SM): 0.062 µg/mL | MIC (E. coli 5152; Escherichia coli, 5152): 8 µg/mL | MIC (P. aeruginosa B): 0.062 µg/mL | MIC (E. aerogenes 503-478): 4 µg/mL | MIC (S. typhi P58A): 0.031 µg/mL | MIC (P. mirabilis 620A; [3]): 128 µg/mL | MIC (P. vulgaris 100; 100): 0.5 µg/mL | MIC (C. diversus CDC 1663-72): 0.031 µg/mL | MIC (C. freundii CDC6): 0.031 µg/mL | MIC (P. aeruginosa 503-56): 16 µg/mL | MIC (K. pneumoniae 35; [5]): 0.125 µg/mL | MIC (S. pneumoniae SC): 1 µg/mL | MIC (P. aeruginosa 6148B): 32 µg/mL | MIC (E. cloacae 9570A): 0.062 µg/mL | MIC (S. faecalis C1): 64 µg/mL | MIC (C. freundii 8ASM): 0.031 µg/mL | MIC (K. pneumoniae 503-964): 0.062 µg/mL | MIC (P. mirabilis 2): 0.125 µg/mL | MIC (P. rettgeri ATCC 9250): 0.125 µg/mL | MIC (P. aeruginosa 5700): 0.062 µg/mL | MIC (P. aeruginosa 5712): 64 µg/mL | MIC (E. cloacae 9295): 0.125 µg/mL | MIC (E. coli 48): 0.031 µg/mL | MIC (P. vulgaris ATCC 6380; [6]): 0.031 µg/mL | MIC (S. pyogenes 503-782): 64 µg/mL | MIC (S. pneumoniae 6301; [4]): 1 µg/mL | MIC (S. pneumoniae 6302): 2 µg/mL | MIC (E. coli R-563): 0.031 µg/mL | MIC (S. aureus Smith): 8 µg/mL | MIC (K. pneumoniae 503-994): 0.062 µg/mL

CC1(C)S[C@@H]2[C@H](N=CN3CCC(CCCn4ccnc4N)CC3)C(=O)N2[C@H]1C(=O)O [I, [2S-(2alpha,5alpha,6beta)]-6-[[[4-[3-(2-amino-1H-imidazol-1-yl)propyl]piperidinyl]methylene]amino]-3,3-dimethyl-7-oxo-4-thia-1-azabicyclo[3.2.0]hpetane-2-carboxylic acid hydrochloride]
MIC (S. marcescens S3): 0.062 µg/mL | MIC (K. pneumoniae HE7): > 128 µg/mL | MIC (E. cloacae P99): 0.031 µg/mL | MIC (S. marcescens S147): 0.062 µg/mL | MIC (S. marcescens S2): 0.062 µg/mL | MIC (P. aeruginosa Stone 130): > 128 µg/mL | MIC (E. cloacae 5699): 0.062 µg/mL | MIC (S. marcescens S5): 0.25 µg/mL | MIC (K. pneumoniae 5096): > 128 µg/mL | MIC (K. pneumoniae 8357): 0.062 µg/mL | MIC (P. aeruginosa POW 151): > 128 µg/mL | MIC (E. cloacae 6951; Enterobacter cloacae, 6951): 8 µg/mL | MIC (E. cloacae 214): 0.062 µg/mL | MIC (S. marcescens 5805; [2]): 0.25 µg/mL | MIC (S. marcescens SM): 0.062 µg/mL | MIC (E. coli 5152; Escherichia coli, 5152): 4 µg/mL | MIC (P. aeruginosa B): 0.062 µg/mL | MIC (E. aerogenes 503-478): 1 µg/mL | MIC (S. typhi P58A): 0.062 µg/mL | MIC (P. mirabilis 620A): 32 µg/mL | MIC (P. vulgaris 100; P. vulgaris 100, read-out: MIC): 4 µg/mL | MIC (C. diversus CDC 1663-72): 0.031 µg/mL | MIC (C. freundii CDC6): 0.031 µg/mL | MIC (P. aeruginosa 503-56; read-out: MIC): 128 µg/mL | MIC (K. pneumoniae 35; [5]): 0.25 µg/mL | MIC (S. pneumoniae SC): 4 µg/mL | MIC (P. aeruginosa 6148B): 128 µg/mL | MIC (E. cloacae 9570A): 0.125 µg/mL | MIC (S. faecalis C1): > 128 µg/mL | MIC (C. freundii 8ASM): 0.031 µg/mL | MIC (K. pneumoniae 503-964): 0.062 µg/mL | MIC (P. mirabilis 2): 0.25 µg/mL | MIC (P. rettgeri ATCC 9250): 0.25 µg/mL | MIC (P. aeruginosa 5700): 0.062 µg/mL | MIC (P. aeruginosa 5712): > 128 µg/mL | MIC (E. cloacae 9295): 0.125 µg/mL | MIC (E. coli 48): 0.031 µg/mL | MIC (P. vulgaris ATCC 6380; [6]): 0.062 µg/mL | MIC (S. pyogenes 503-782): > 128 µg/mL | MIC (S. pneumoniae 6301; Streptococcus pneumoniae, 6301): 2 µg/mL | MIC (S. pneumoniae 6302): 4 µg/mL | MIC (E. coli R-563): 0.062 µg/mL | MIC (S. aureus Smith): 16 µg/mL | MIC (K. pneumoniae 503-994): 0.062 µg/mL
